Marks after values point to notes of the source that are not given here.
Tests used:
[1] = tested on: Signs and Symptoms of Osteoarthritis; conditions: cited from earlier work
[2] = Combined plots / meta analysis of published pharmacokinetic data; assay type: in vivo, patients
Protocol: Accordingly, the dose proportionality may not be as is described by the package insert for Celebrex®. As a result of the failure to determine and pursue target PK ranges, in some instances patients receiving 100 mg patients may not get enough of the drug and the 200 mg patients may receive too much of the drug.
In other words, the most efficacious celecoxib dosage is highly individualized among the elderly. Unexpectedly, elderly here is defined as patients greater than >40 or >50, not the usually definition of elderly (age greater>65).
Based on the wide range of AUC values, some instances patients receiving 100 mg patients may not get enough of the drug and the 200 mg patients may receive too much of the drug (FIG. 2).

pain = conditions: 100 mg dose, for the duration of the six week study; cited from earlier work
[3] = Naproxen group, at 12 weeks, n = 198

Compound | Withdrawal due to treatment failure (%) ([1]; Naproxen group, 12 weeks, n = 198) | Patient global assessment condition improved (%) [1, 3] | Patient global assessment condition worsened (%) [1, 3] [%] | Physician's global assessment condition improved (%) [1, 3] | Physician's global assessment condition worsened (%) [1, 3] [%] | Mean +/− SEM Osteoarthritis Severity Index ([1]; Naproxen group, at 12 weeks, scale 0 to 24, negative change indicating improvement) | Mean +/− SEM WOMAC Osteoarthritis Index composite score ([1]; Naproxen group, at 12 weeks, scale 0 to 96, negative change indicating improvement) | variability of PK parameters (AUC) by age group ([2]; applicant's meta analysis, one dose AUC, elderly (>40 or >50) vs younger patients, FIG. 3) | variability of pharmacokinetics ([2]; combined plots of published pharmacokinetic data, FIG. 2, 100 mg and 200 mg doses) | side effects reported ([1]; 100 mg dose compared with 200 mg dose) | side effects reported (pain)
COc1ccc2cc([C@H](C)C(=O)O)ccc2c1 [Naproxen, naproxen] | 26‡ % | 29‡ % | 2 | 33‡ % | 1 | −3.1 +/− 0.30‡ | −11.9 +/− 1.29‡ |  |  |  | 
Cc1ccc(-c2cc(C(F)(F)F)nn2-c2ccc(S(N)(=O)=O)cc2)cc1 [celecoxib, Celecoxib] |  |  |  |  |  |  |  | higher variability than younger patients | unexpectedly high | fewer side effects | fewer side effects

Source: US20160199392A1, “METHOD FOR INDIVIDUALIZED DRUG THERAPY” (Autotelic LLC, priority 2015, published 2016)
